# Test results published in publication PMC3835680, “Inhibition of Nutlin-Resistant HDM2 Mutants by Stapled Peptides” (PLoS ONE, 2013).
# “Also recorded” adds a separate entry of the source. FAM = carboxyfluorescein
# How the values were obtained:
# HDM2 (1-125) M62A = biological target: T1, HDM2 (1-125) M62A (Homo sapiens, UniProt Q00987, M62A); test: Fluorescence anisotropy, competitive titration, HDM2 M62A; type: binding; settings: M62A compared to wild-type
# T1 construct: using purified HDM2 (1-125) and carboxyfluorescein (FAM) labeled 12-1 peptide; GST (N, cleaved yes); made in house; host or cells: E. coli BL21 DE3
# Procedure: (§1) Cells harbouring the GST fusion constructs were grown in LB medium at 37°C to an OD600 of ~0.6 and induction was carried out with 1 mM IPTG at room temperature. Cells were harvested by centrifugation and the cell pellets were resuspended in 50 mM Tris pH 8.0, 10% sucrose and then sonicated. The sample was next centrifuged for 60 mins at 17,000 g at 4°C. The supernatant was applied to a 5 mL FF GST column (Amersham) pre-equilibrated in wash buffer (50 mM Tris-HCl pH 8.0, 150 mM NaCl, 1 mM DTT). The column was then further washed by 6 volumes of wash buffer. HDM2 constructs were then purified from the column by cleavage with Precission protease (GE Lifesciences). 10 units of precission protease, in one column volume of wash buffer, were injected onto the column. The cleavage reaction was allowed to proceed overnight at 4°C. The cleaved protein was then eluted off the column with wash buffer. Protein fractions were analyzed with SDS page gel and concentrated using Centricon (3.5 kDa MWCO) concentrator. […] Protein fractions were analyzed with SDS page gel and concentrated using a Centricon (3.5 kDa MWCO) concentrator, Millipore.
# (§2) All titrations were carried out in triplicate. Curve-fitting was carried out using Prism 4.0 (GraphPad).
# [1] = system: wild-type HDM2 / p53 transactivation in p53/MDM2-null DKO cells; test: p53 reporter assay in p53/MDM2-null DKO cells, wild-type HDM2; type: cell-based, mouse; settings: stapled peptide, 20 µM, mean ± SD (n=2)
# [2] = system: HDM2-p53 interaction (wild-type HDM2); test: In vitro pull-down assay, p53-HDM2 wild-type; type: binding; settings: 10 µM, IVT-expressed proteins
# Source text: (§3) Single mutant HDM2 clones were generated by Quickchange mutagenesis (Stratagene) of parental HDM2-PET22b using appropriate primers 1-6. The constructs were amplified with primers petF2 and petR to make HDM2 amplicons with T7 promoter and ribosome binding site required for in vitro transcription-translation (IVT) of wild-type or mutant HDM2. Primers 1-6 were used to introduce mutations into the parental pCMV-HDM2 mammalian expression construct by Quickchange mutagenesis. Both the HDM2-PET22b and pCMV-HDM2 constructs additionally encode a C-terminal HA tag. The plasmid p53-PET22b was also amplified with petF2 and petR to make template for IVT of wild-type p53.
# Protein G beads (Invitrogen) were incubated with anti-HA (1 µg per 10 µL beads) for 1 hour in PBST-3%BSA and subsequently washed twice in PBST-0.1%BSA. IVT-expressed wild-type or mutant HDM2 was incubated with the beads on a rotator for 30 mins. […] IVT-expressed p53 was added to the mixture and incubation allowed for 1 hour. Beads were finally washed thrice in PBST-0.1%BSA and thrice with PBS, and bound proteins eluted by resuspension in 20 µL SDS-PAGE loading buffer and incubation at 95°C for 5 minutes. […]
# HDM2 (1-125) Q24R = biological target: T2, HDM2 (1-125) Q24R (Homo sapiens, UniProt Q00987, Q24R); test: Fluorescence anisotropy, competitive titration, HDM2 Q24R; type: binding; settings: Q24R compared to wild-type
# T2 construct: using purified HDM2 (1-125) and carboxyfluorescein (FAM) labeled 12-1 peptide; GST (N, cleaved yes); made in house; host or cells: E. coli BL21 DE3
# Procedure: as §1, §2
# [3] = system: M62A HDM2 / p53 transactivation in p53/MDM2-null DKO cells; test: p53 reporter assay in p53/MDM2-null DKO cells, HDM2 M62A; type: cell-based, mouse; settings: stapled peptide, 20 µM, mean ± SD (n=2)
# HDM2 (1-125) P20L = biological target: T3, HDM2 (1-125) P20L (Homo sapiens, UniProt Q00987, P20L); test: Fluorescence anisotropy, competitive titration, HDM2 P20L; type: binding; settings: P20L compared to wild-type
# T3 construct: using purified HDM2 (1-125) and carboxyfluorescein (FAM) labeled 12-1 peptide; GST (N, cleaved yes); made in house; host or cells: E. coli BL21 DE3
# Procedure: as §1, §2
# [4] = system: HDM2-p53 interaction (M62A HDM2); test: In vitro pull-down assay, p53-HDM2 M62A; type: binding; settings: 10 µM, IVT-expressed proteins
# Source text: as §3, with “tag.” for “tag. The plasmid p53-PET22b was also amplified with petF2 and petR to make template for IVT of wild-type p53.”
# (§4) Protein G beads (Invitrogen) were incubated with anti-HA (1 µg per 10 µL beads) for 1 hour in PBST-3%BSA and subsequently washed twice in PBST-0.1%BSA. IVT-expressed wild-type or mutant HDM2 was incubated with the beads on a rotator for 30 mins. […] IVT-expressed p53 was added to the mixture and incubation allowed for 1 hour. Beads were finally washed thrice in PBST-0.1%BSA and thrice with PBS, and bound proteins eluted by resuspension in 20 µL SDS-PAGE loading buffer and incubation at 95°C for 5 minutes. Both the eluates and inputs were subjected to electrophoresis, transferred to nitrocellulose membranes and probed for p53 with horseradish peroxidise conjugated DO1 antibody (Santa Cruz) or for HDM2 with anti-HA antibody followed by rabbit anti-mouse (Dakocytomation).
# [5] = system: HDM2-p53 interaction (Q24R HDM2); test: In vitro pull-down assay, p53-HDM2 Q24R; type: binding; settings: 10 µM, IVT-expressed proteins
# Source text: as §3, with “tag.” for “tag. The plasmid p53-PET22b was also amplified with petF2 and petR to make template for IVT of wild-type p53.”
# as §4
# HDM2 M62 = settings: ref [19]; cited from earlier work
# Source text: Modelling studies show the hydrophobic hydrocarbon chain comprising the staple interacts with HDM2 in the vicinity of M62 (Figure 6). Whilst the M62A mutation impacts negatively on binding of both stapled peptide and p53 compared to wild type HDM2, the presence of additional “fall-back” interactions (apart from M62, see below) results in marginal overall loss of binding by these ligands. […] Mutation to alanine causes marg ...
# [6] = system: p53 (1-81) - HDM2 (7-134) interaction, wild-type, Q24R and M62A, in BHK cells; test: Fluorescent 2-Hybrid (F2H) co-localization assay; type: cell-based; settings: 1 hour at 37°C, titration, difference particularly evident at 1-10 µM for Nutlin, n=4
# Procedure: Interaction (%) was determined as the ratio of cells showing co-localization of fluorescent signals at the nuclear spot to the total number of evaluated cells. To enable comparison between the experiments, a normalization step was performed. For each independent experiment, the interaction ratios in treated wells were normalized to the interaction ratios in control (untreated) wells:
# I % = 100% * Interactions_treated/Interactions_untreated
# In this way, the control values in each experiment are taken to be 100%. For automated image acquisition an INCell Analyzer 1000 with a 20X objective (GE Healthcare) was used. Automated image segmentation and analysis was performed with the corresponding INCell Workstation 3.6 software. At least 100 co-transfected cells were analyzed per well. Titrations were carried out independently three to five times.
# For the F2H assay, significance (t-test) is denoted relative to the percentage interactions observed for wild-type HDM2 under the indicated treatment conditions. For transcript analysis by real-time PCR, two-way ANOVA with Bonferroni post test was performed using GraphPad Prism software.
# HDM2 Y104G = settings: mutation in secondary Nutlin binding site; ref [54]; cited from earlier work
# Source text: Studies have shown that K51 of HDM2 interacts with E23 and E25 of HDM ...
# [7] = system: wild-type and mutant (M62A, Q24R) HDM2; p53-dependent genes in HCT116 p53^+/+ cells; test: RT-qPCR of p53-regulated genes in HCT116 p53+/+ cells transfected with HDM2 variants; type: cell-based; settings: Nutlin 10 µM; M62A and Q24R compared to wild-type; 24 h post-transfection; RT-qPCR (n=2)
# Source text: In all cases, the total amount of plasmid DNA transfected per well was equilibrated by addition of the parental vector pcDNA3.1a(+).
# [8] = biological target: T4, HDM2 (1-125), wild-type, purified (human, UniProt Q00987 1-125); test: fluorescence polarisation; competitive fluorescence anisotropy titrations against FAM-labelled 12-1 peptide with purified HDM2 (1-125); apparent Kds; PBS pH 7.4, 3% DMSO, 0.1% Tween 20
# T4 construct: source: E. coli BL21 DE3, purified (GST column, PreScission cleavage, ResourceS)
# [9] = biological target: T5, HDM2 (1-125) M62A, purified (human, UniProt Q00987 1-125, M62A); test: as above
# T5 construct: also called HDM2-M62A; source: E. coli BL21 DE3, purified (GST column, PreScission cleavage, ResourceS)
# [10] = biological target: T6, HDM2 (1-125) Q24R, purified (human, UniProt Q00987 1-125, Q24R); test: as above
# T6 construct: source: E. coli BL21 DE3, purified (GST column, PreScission cleavage, ResourceS)
# [11] = biological target: T7, HDM2 (1-125) P20L, purified (human, UniProt Q00987 1-125, P20L); test: as above
# T7 construct: source: E. coli BL21 DE3, purified (GST column, PreScission cleavage, ResourceS)
# T7 sequence (Q00987 1-125 P20L): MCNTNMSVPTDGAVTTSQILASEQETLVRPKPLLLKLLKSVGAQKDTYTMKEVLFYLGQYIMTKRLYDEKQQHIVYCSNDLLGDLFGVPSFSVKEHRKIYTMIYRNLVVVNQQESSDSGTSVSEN
# T6 sequence (Q00987 1-125 Q24R): as the sequence (Q00987 1-125 P20L) above, with L20P, Q24R counted along it
# T5 sequence (Q00987 1-125 M62A): as the sequence (Q00987 1-125 P20L) above, with L20P, M62A counted along it
# T4 sequence (Q00987 1-125): as the sequence (Q00987 1-125 P20L) above, with L20P counted along it
# T3 sequence (Q00987 1-125 P20L): as the sequence (Q00987 1-125 P20L) above
# T2 sequence (Q00987 1-125 Q24R): as the sequence (Q00987 1-125 P20L) above, with L20P, Q24R counted along it
# T1 sequence (Q00987 1-125 M62A): as the sequence (Q00987 1-125 P20L) above, with L20P, M62A counted along it
molecule,measurement,setting,value
CC(=O)N[C@H](C(=O)N[C@@H](CO)C(=O)N[C@@H](Cc1ccccc1)C(=O)N[C@]1(C)CCCCCCC=CCCC[C@@](C)(C(N)=O)NC(=O)[C@H](CC(C)C)NC(=O)[C@H](CC(C)C)NC(=O)[C@H](C)NC(=O)[C@H](Cc2c[nH]c3cc(Cl)ccc23)NC(=O)[C@H](Cc2ccc(O)cc2)NC(=O)[C@H](CCC(=O)O)NC1=O)[C@@H](C)O [MO11],Change of binding affinity versus wild-type HDM2,HDM2 (1-125) M62A,very slight perturbation of binding
same,p53 reporter activity restored (percentage of activity with p53-only transfection),[1],51%
same,"Inhibition of p53-HDM2 interaction (pull-down, Western blot)",[2],strong repression of the HDM2-p53 interaction; also recorded: inhibition of p53 binding to both WT and mutant HDM2
same,Change of binding affinity versus wild-type HDM2,HDM2 (1-125) Q24R,not perturbed
same,p53 reporter activity restored (percentage of activity with p53-only transfection),[3],47%
same,Change of binding affinity versus wild-type HDM2,HDM2 (1-125) P20L,not perturbed
same,"Inhibition of p53-HDM2 interaction (pull-down, Western blot)",[4],able to abrogate the mutant HDM2-p53 interaction as efficiently as Nutlin inhibits the wild-type HDM2-p53 interaction; also recorded: inhibition of p53 binding to both WT and mutant HDM2
same,"Inhibition of p53-HDM2 interaction (pull-down, Western blot)",[5],able to abrogate the mutant HDM2-p53 interaction as efficiently as Nutlin inhibits the wild-type HDM2-p53 interaction; also recorded: inhibition of p53 binding to both WT and mutant HDM2
COc1ccc(C2=N[C@@H](c3ccc(Cl)cc3)[C@@H](c3ccc(Cl)cc3)N2C(=O)N2CCNC(=O)C2)c(OC(C)C)c1 [Nutlin],Effect of loss of M62 contact on Nutlin binding,HDM2 M62,major loss of binding
same,"Dissociation of p53-HDM2 complex, mutants (Q24R, M62A) versus wild-type (F2H)",[6],"reduced dissociation of mutant N-terminal domains from p53, indicating Nutlin resistance; also recorded: increased dissociation of WT-p53 complex compared to Q24R/M62A-p53 complexes"
same,"Inhibition of p53-HDM2 interaction (pull-down, Western blot)",[2],strong repression of the HDM2-p53 interaction; also recorded: inhibits p53-HDM2 interaction
same,Binding to HDM2 Y104G,HDM2 Y104G,recalcitrant to Nutlin binding
same,"p53 activation of p21, gadd45α and 14-3-3σ transcript levels, mutants versus wild-type HDM2",[7],significant reduction of p53 transcriptional activity was observed for the M62A and Q24R mutants compared to wild-type
P53 peptide (ligand of Table 1),Kd,[8],13.9 nM
same,Kd,[9],29.6 nM
same,Kd,[10],10.4 nM
same,Kd,[11],17.2 nM
{FAM}-RFMDYWEGL-NH2 (that it is not a natural p53 stretch is my surmise) [carboxyfluorescein (FAM) labeled 12-1 peptide (FAM-RFMDYWEGL-NH2)],binding result,[8]; both partners purified,binds
same,binding result,[9]; both partners purified,binds
same,binding result,[10]; both partners purified,binds
same,binding result,[11]; both partners purified,binds
